Here are results for eleven compounds from patent US7863414B2, “Methods of treatment and uses for CaMKII and its interaction with HDACs and calpain” (The Board of Regents of the University of Texas Systems, priority 2005, dated 2011).

One assay has as its system HDAC4-GFP. Nature of the assay: Cellomics high content assay, nuclear localization of HDAC4-GFP in COS cells transfected with activated CaMKII. The following applies: COS cells transfected with HDAC4-GFP and CaMKII; concentration range; fixed at 48 hrs; EC50 only in FIG. 12. In kind it is cell-based. The protocol: The plates are incubated at room temperature for 60 minutes.

Another assay relates to MEF2. Nature of the assay: Reporter assay of endogenous MEF2 activity (3xMEF2-Luc) in NRVMs. In kind it is cell-based, rat. The following applies: ionomycin 0.25 μmol/l; for Effect on ionomycin-induced increase of endogenous MEF2 activity: NRVMs pretreated 30 min, Gö6976 200 nmol/l, KN93 2.5 μmol/l, KN62 5 μmol/l, CSA 1 μmol/l. How it is done:
Endogenous MEF2 activity in NRVMs. One day after plating, a MEF2 dependent luciferase reporter (3xMEF2-Luc)56, carrying three MEF2-DNA binding sites, was transfected into NRVMs using Lipofectamine plus (Invitrogen; Carlsbad, Calif.). To control for transfection efficiency NRVMs were cotransfected with a β-galactosidase reporter plasmid (pCMV-lacZ). Twenty-four hours after transfection, NRVMs were starved for 24 h, pretreated with kinase inhibitors or cyclosporine for 30 min and stimulated with ionomycin for 24 h. Luciferase and β-galactosidase levels were quantified employing the Luciferase Assay Kit (Promega) and the FluoReporter Kit (Molecular probes), respectively.
A general note: In a reporter assay the amount or activity of a reporter protein is the signal.

The test system of assay [1] is HDAC4. Nature of the assay: Subcellular localization of HDAC4 in Cos cells with active CaMKIIδB mutants, leptomycin B treatment. In kind it is cell-based. The following applies: 12 hours. How it is done: (§1) Cell culture and transfection assays. COS cells were maintained in DMEM with fetal bovine serum (10%), L-glutamine (2 mM), and penicillin-streptomycin. Transfection of COS cells was performed with Fugene 6 (Roche Molecular Biochemicals) according to manufacturer's instructions. Indirect Immunofluorescence. COS cells were grown on glass coverslips, fixed in paraformaldehyde (4%), permeabilized in 0.1% Triton-X-100 and blocked in PBS containing goat serum (5%). Primary antibodies against FLAG (monoclonal or rabbit; Sigma), Myc (polyclonal, A-14; Santa Cruz), or HA (polyclonal, Y-11; Santa Cruz) were used at a dilution of 1:200. Secondary antibodies conjugated to either fluoresceine or Texas Red (Vector Laboratories) were also used at a dilution of 1:200. Staining of NRVMs for sarcomeres was performed with an antibody directed against sarcomeric α-actinin (Sigma). All images were captured at a magnification of ×40.

Assay [2] has as its system HDAC4. Nature of the assay: Nuclear export of Flag-HDAC4 in cardiomyocytes (NRVMs), immunofluorescence. The class given is cell-based, rat. To be noted: for Effect of kinase inhibitor on PE-induced nuclear export of HDAC4: adenoviral Flag-HDAC4, inhibitor pretreatment 30 min, PE 4 hrs, Stauro 500 nmol/l, KN93 5 μmol/l, KN62 10 μmol/l, AIPII-2 500 nmol/l, Bis 2.5 μmol/l, Gö6976 200 nmol/l, H89 1 μmol/l; for Nuclear export of HDAC4 induced by adrenergic agonist: Flag-HDAC4, PE or Iso 10 μmol/l, up to 4 hrs.
Excerpt: (§2) Cardiomyocyte culture and adenoviral infection. NRVMs were isolated from 1-2 day Sprague Dawley rats. For adenovirus production, cDNAs encoding FLAG-tagged HDAC4 wild-type or a mutant containing alanines in place of serines 246, 467 and 632 (S/A) were subcloned into the pACCMV vector and co-transfected with pJM17 into 293 cells. Primary lysates were used to re-infect 293 cells and viral plaques were obtained using the agar overlay method. The production of adenoviral GFP-HDAC5 was described previously 18. NRVMs were infected 24 h after plating, starved for 4 h, and stimulated with PE or Iso for the indicated time period. In experiments with kinase inhibitors, NRVMs were pretreated with the inhibitor 30 min prior stimulation. For assessing cardiomyocyte hypertrophy, NRVMs were starved for 24 h and stimulated with PE for another 24 hrs. Subcellular localization of Flag-HDAC4 and cardiomyocyte hypertrophy, as assessed by sarcomeric organization, was determined by indirect immunofluorescence.
as §1, with “Indirect” for “Cell culture and transfection assays. COS cells were maintained in DMEM with fetal bovine serum (10%), L-glutamine (2 mM), and penicillin-streptomycin. Transfection of COS cells was performed with Fugene 6 (Roche Molecular Biochemicals) according to manufacturer's instructions. Indirect”

In a further assay the test system is HDAC5. Nature of the assay: Nuclear export of GFP-HDAC5 in cardiomyocytes (NRVMs). In kind it is cell-based, rat. The following applies: PE 4 hrs.
Excerpt: as §2
Indirect Immunofluorescence. COS cells were grown on glass coverslips, fixed in paraformaldehyde (4%), permeabilized in 0.1% Triton-X-100 and blocked in PBS containing goat serum (5%). Primary antibodies against FLAG (monoclonal or rabbit; Sigma), Myc (polyclonal, A-14; Santa Cruz), or HA (polyclonal, Y-11; Santa Cruz) were used at a dilution of 1:200. […]

The test system of assay [3] is neonatal rat ventricular myocytes (NRVMs). As to the kind of experiment: Cardiomyocyte hypertrophy in NRVMs. The class given is cell-based. The following applies: data not shown.
Excerpt: as §2

“Also recorded” adds a separate entry of the source.

Turning to `CN[C@@H]1C[C@H]2O[C@@](C)([C@@H]1OC)n1c3ccccc3c3c4c(c5c6ccccc6n2c5c31)C(=O)NC4` [staurosporine], the “Dose response of HDAC4-GFP nuclear localization (Nuc-Cyto)” value in the assay on HDAC4-GFP is listed as “smooth dose response curves”.

`C[C@H](CCC(=O)O)C[C@H](C)C[C@H](C)C(=O)/C=C(\O)[C@H](C)C[C@H](C)C/C=C/[C@@H](C)[C@@H](O)[C@@H](C)[C@@H](O)C[C@@H]1CC[C@@](C)([C@H]2CC[C@@](C)([C@@H](C)O)O2)O1` [Ionomycin, ionomycin]: the “Endogenous MEF2 activity (3xMEF2-Luc) after stimulation” value with MEF2 (NRVMs) is on record as “doubled”.

On to `CCC(=C/[C@H](C)C/C=C/C(C)=C/[C@@H](C)C(=O)[C@@H](C)[C@H](O)[C@@H](C)C/C(C)=C/C(=O)O)/C=C/[C@@H]1OC(=O)C=C[C@@H]1C` [leptomycin B], for which the “Nuclear accumulation of HDAC4 after leptomycin B” value in the assay with HDAC4 [1] (absence or presence of constitutive nuclear active CaMKIIδb T287D/S332A) was “completely accumulated in the nucleus; also recorded: accumulates in the nucleus”; in the assay with HDAC4 [1] (presence of cytosolic active CaMKIIδb T287D/K328N/K329N or CaMKIIδb T287D), “no accumulation”. For the same compound, the “Dose response of HDAC4-GFP nuclear localization (Nuc-Cyto)” value with HDAC4-GFP is given as “smooth dose response curves”.

In the case of `O=S(=O)(NCCNC/C=C/c1ccc(Br)cc1)c1cccc2cnccc12` [H89], the “Effect of kinase inhibitor on PE-induced nuclear export of HDAC4” value (“Effect of kinase inhibitor” below) in the assay on HDAC4 [2] is “did not affect”.

Regarding `Cn1c2ccccc2c2c3c(c4c5ccccc5n(CCC#N)c4c21)C(=O)NC3` [Gö6976], the “Effect of kinase inhibitor” value with HDAC4 [2] is recorded as “did not affect”. For the same compound, the “Effect on ionomycin-induced increase of endogenous MEF2 activity” value (“Effect on ionomycin-induced increase” for short) in the assay on MEF2 was “did not affect”.

With “autoctamide-2 related inhibitory peptide II [AIPII-2]”, the “Effect of kinase inhibitor” value in the assay with HDAC4 [2] was “effective in blocking”; with HDAC4 [2] (listed as AIPII), “markedly reduced”.

Regarding `CN([C@@H](Cc1ccc(OS(=O)(=O)c2cccc3cnccc23)cc1)C(=O)N1CCN(c2ccccc2)CC1)S(=O)(=O)c1cccc2cnccc12` [KN62], the “Effect of kinase inhibitor” value with HDAC4 [2] is “markedly reduced; also recorded: effective in blocking”. For the same compound, the “Effect on ionomycin-induced increase” value in the assay with MEF2 was “blocked”.

For `CN(C)CCCn1cc(C2=C(c3c[nH]c4ccccc34)C(=O)NC2=O)c2ccccc21` [bisindolylmaleimide I], the “Effect of kinase inhibitor” value in the assay with HDAC4 [2] is given as “did not affect”.

Consider `CNC[C@H](O)c1cccc(O)c1` [phenylephrine], for which the figures for the “Nuclear export of HDAC4 induced by adrenergic agonist” value with HDAC4 [2] and in the assay with HDAC4 [2] (listed as PE) were “time-dependent nuclear export” and “time-dependently induced nuclear export”, respectively. Also, in the assay on HDAC5, the “Nuclear export of HDAC5 in response to agonist” value is listed as “exported”. Besides, in assay [3], the Hypertrophic growth response entry was “evoked a hypertrophic growth response”.

Regarding `CC(C)NCC(O)c1ccc(O)c(O)c1` (centres unmarked) [isoprenaline], the “Nuclear export of HDAC4 induced by adrenergic agonist” value in the assay with HDAC4 [2] is listed as “time-dependent nuclear export”; in the assay on HDAC4 [2] (listed as Iso), “time-dependently induced nuclear export”. The Hypertrophic growth response result in assay [3] was “evoked a hypertrophic growth response”.

Consider `COc1ccc(S(=O)(=O)N(CCO)c2ccccc2CN(C)C/C=C/c2ccc(Cl)cc2)cc1` [KN93], for which, in the assay with HDAC4 [2], the “Effect of kinase inhibitor” value is on record as “markedly reduced; also recorded: effective in blocking”. For the same compound, the “Effect on PE-induced nuclear export of HDAC5” value in the assay on HDAC5 (KN93 5 μmol/l pretreatment) is reported as “not affected; also recorded: not blocked”. In addition, in the assay with MEF2, the “Effect on ionomycin-induced increase” value was “blocked”.
